Experiments:
HIV-1 = conditions: Table 1 footnote h: data from reference 8; cited from earlier work
[1] = tested on: HIV-induced membrane fusion; conditions: cited from earlier work
[2] = tested on: HIV-induced membrane fusion; experiment: Inhibition of HIV-induced membrane fusion / syncytia formation reported in the literature; type: cell-based; conditions: versus compounds 2-5 or 8-10; CEM4 here, H9 in the literature
HIV-1 RT = conditions: Table 1 footnote h: data from reference 8; cited from earlier work

SMILES: C=C(C)[C@@H]1CC[C@]2(C(=O)NCCCCCCCC(=O)N[C@@H](CC(C)C)[C@@H](O)CC(=O)O)CC[C@]3(C)[C@H](CC[C@@H]4[C@@]5(C)CC[C@H](O)C(C)(C)[C@@H]5CC[C@]43C)[C@@H]12 [Compound 12]
- EC50 (HIV-1): 0.03 µM
- T.I. (HIV-1): > 90
- Fusion Assay IC100 ([1]; Table 1 footnote h: data from reference 8): 3 µg/mL
- inhibit syncytia formation ([1]; reported in the literature, H9 cell line): 3 µg/mL
- potency in inhibiting syncytia formation relative to compounds 2-5 or 8-10 [2]: approximately ten
- HIV-RT Assay IC50 (HIV-1 RT): No Inhibition

Reference: patent US5679828A (priority 1995, dated 1997)
